Experimental data taken from US20240383874A1, “BENZENE RING DERIVATIVE, AND COMPOSITION AND PHARMACEUTICAL USE THEREOF” (Xizang Haisco Pharmaceutical Co., Ltd., priority 2020, published 2024).
Counter-ions that a name gives are not always drawn. Like-named read-outs stand apart in the source and are kept apart here.

Key:
22RV1 cells = experiment: Experiment 2 on inhibiting 22RV1 cell proliferation (7 days, CellTiter-Glo); type: cell-based; details: 1% css-FBS phenol red-free medium, incubated with compound 7 days, read-out: IC50 values on proliferation inhibition of 22RV1 cells
Method in brief: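 Survival measured by CellTiter-Glo after 7 days of compound exposure, normalised to DMSO controls, with IC50 fitted by dose-response. Cells (22RV1, 2000/well) were seeded overnight in 1% css-FBS phenol red-free medium before dosing.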

[1] = Pharmacokinetic test in rats; type: in vivo; details: rat, po; male SD rats, single dose i.g. 5 mg/kg, plasma, 0-24 h
Procedure: Test objective: in this test, a single dose of test compounds was administered to SD rats intragastrically, and the concentrations of the test compounds in plasma of the rats were measured to evaluate pharmacokinetic characteristics of the test compounds in the rats.
Test animals: male SD rats, 200-250 g, 6-8 weeks old, 3 rats/compound, purchased from Chengdu Dossy Experimental Animals Co., Ltd.
Test method: on the day of the test, 3 SD rats were randomly grouped according to their body weights. The animals were fasted with water available for 12 to 14 hours one day before the administration of a test compound, and were fed 4 hours after the administration.
Sampling: before and after the administration, 0.1 mL of blood was taken from the orbits of the rats under isoflurane anesthesia, and placed in an EDTAK2 centrifuge tube. Centrifugation was carried out at 5000 rpm at 4C for […], and the plasma was collected.
Time points for plasma collection in G1 group: 0, 5 min, 15 min, 30 min, 1 h, 2 h, 4 h, 6 h, 8 h, and 24 h.
Before analysis and detection, all samples were stored at −80° C. The samples were analyzed quantitatively by LC-MS/MS.

full-length AR (AR-FL) = experiment: Degradation experiment on full-length AR (AR-FL) in 22RV1 cells; type: cell-based; details: 24 h, relative to vehicle control
Procedure: Prostate cancer cells 22RV1 were purchased from ATCC, the cell medium was 1640+10% FBS, and the cells were cultured in an incubator at 37° C. under 5% CO2. On day 1, the cells in an exponential phase were collected. With a 1% css-FBS phenol red-free medium, the cell suspension was adjusted to a corresponding concentration and plated into a 6-well plate at 1 mL/well and 100000 cells/well. The next day, a 1% css-FBS phenol-free medium containing the compound to be tested was added, a 1% css-FBS phenol-free medium containing 0.2% DMSO was added to one well as DMSO vehicle control, and the 6-well plate was cultured in an incubator at 37° C. under 5% CO2. After 24 h, the cells were digested with pancreatin and collected into a 1.5 mL centrifuge tube. 15 μL of RIPA lysate (containing 1×protease inhibitor cocktail) was added to each well, and the cells were lysed on ice for 15 min and then centrifuged at 12000 g and 4° C. for 10 min. The supernatant protein samples were collected, and protein quantification was performed by a BCA method. AR-FL and AR-Vs were detected using fully automatic protein expression quantitative analysis, which involved diluting the protein to be tested to 1 mg/mL. 4 μL of the diluted protein samples were added to 1 μL of 5×Master Mix (provided in the kit), and the prepared samples were denatured at 95° C. for 5 min and placed on ice for use. The primary antibodies, AR (CST, 5153S) and β-actin (CST, 3700), were diluted with Antibody Diluent II (provided in the kit) at a dilution ratio of 1:20 and 1:200, respectively. The secondary antibody was a mixed goat anti-mouse and goat anti-rabbit secondary antibody in a ratio of 1:1, and the color development solution was a mixed solution of Lumino-S and Peroxide in a ratio of 1:1. The prepared reagents were successively added to an assay plate according to instructions of the kit and detected on an instrument. Western blot band processing was performed using “Compass for SW”, a fully automatic protein expression quantitative analysis software, in which western blot bands were automatically simulated based on signal values. The degradation rate of AR-FL (3) or AR-Vs (4) relative to vehicle control at different compound concentrations was calculated according to formulas (3) and (4), wherein AR-FLcompound was the relative peak area of AR-FL in the treated group, and AR-FLsolvent was the relative peak area of AR-FL in the vehicle control group; AR-Vscompound was the relative peak area of AR-Vs in the treated group, and AR-Vssolvent was the relative peak area of AR-Vs in the vehicle control group.
DC50 calculation: the compound concentration DC50 values at which the degradation rate of AR-FL or AR-Vs was 50% were calculated using OriginPro2015 software and analyzed using DoseResp function according to formula (3) or (4).

With `[2H]C([2H])([2H])Oc1c(Cl)cc(C(C)(C)c2ccc(OCc3ccnc(N4CCC(CN5CCC(C6CCN(c7ccc8c(c7)n(C)c(=O)n8C7CCC(=O)NC7=O)CC6)CC5)CC4)n3)cc2)cc1C#N` (centres unmarked) [Compound 99 trifluoroacetate, 3-chloro-5-(2-(4-((2-(4-((1′-(1-(2,6-dioxopiperidin-3-yl)-3-methyl-2-oxo-2,3-dihydro-1H-benzo[d]imidazol-5-yl)-[4,4′-bipiperidin]-1-yl)methyl)piperidin-1-yl)pyrimidin-4-yl)methoxy)phenyl)propan-2-yl)-2-(methoxy-d3)benzonitrile] as the molecule, how does the IC50 (22RV1 cells; Homo sapiens, 22Rv1, 168 h) read?
Its IC50 is 427 nM.

What about the AUC(0-t) [1] of the same molecule?
The AUC(0-t) was 541 ± 80 ng·h/mL.

With `CCOc1c(Cl)cc(C(C)(C)c2ccc(OCc3ccnc(N4CCC(CN5CCC(C6CCN(c7ccc(C(=O)NC8CCC(=O)NC8=O)nc7)CC6)CC5)CC4)n3)cc2)cc1C#N` (centres unmarked) [Compound 111 trifluoroacetate, 5-(1′-((1-(4-((4-(2-(3-chloro-5-cyano-4-ethoxyphenyl)propan-2-yl)phenoxy)methyl)pyrimidin-2-yl)piperidin-4-yl)methyl)-[4,4′-bipiperidin]-1-yl)-N-(2,6-dioxopiperidin-3-yl)picolinamide] as the molecule, how does the IC50 (22RV1 cells; Homo sapiens, 22Rv1, 168 h) read?
Its IC50 is 290 nM.

And the AUC(0-t) [1]?
The AUC(0-t) was 574 ± 59 ng·h/mL.

Which IC50 (22RV1 cells; Homo sapiens, 22Rv1, 168 h) does the source give for `COc1c(Cl)cc(C(C)(C)c2ccc(OCc3ccnc(N4CCC(CN5CCC(C6CCN(c7ccc(C(=O)NC8CCC(=O)NC8=O)nc7)CC6)CC5)CC4)n3)cc2)cc1C#N` (centres unmarked) [Compound 112 trifluoroacetate, 5-(1′-((1-(4-((4-(2-(3-chloro-5-cyano-4-methoxyphenyl)propan-2-yl)phenoxy)methyl)pyrimidin-2-yl)piperidin-4-yl)methyl)-[4,4′-bipiperidin]-1-yl)-N-(2,6-dioxopiperidin-3-yl)picolinamide] here?
The IC50 was 463 nM.

And the AUC(0-t) [1]?
Its AUC(0-t) is 827 ± 211 ng·h/mL.

What does the source list for `CC(C)(c1ccc(OCc2ccnc(N3CCC(CN4CCC(C5CCN(c6ccc7c(c6)C(=O)N(C6CCC(=O)NC6=O)C7=O)CC5)CC4)C3)n2)cc1)c1cc(Cl)cc(C#N)c1` (centres unmarked) [Compound 130, 3-chloro-5-(2-(4-((2-(3-((1′-(2-(2,6-dioxopiperidin-3-yl)-1,3-dioxoisoindolin-5-yl)-[4,4′-bipiperidin]-1-yl)methyl)pyrrolidin-1-yl)pyrimidin-4-yl)methoxy)phenyl)propan-2-yl)benzonitrile]?
IC50 (22RV1 cells): 483 nM; AUC(0-t) [1]: 665 ± 264 ng·h/mL

Which IC50 (22RV1 cells) does the source give for `CC(C)(c1ccc(OCc2ccnc(N3CCC(N4CCC(C5CCN(c6ccc7c(c6)C(=O)N(C6CCC(=O)NC6=O)C7=O)CC5)CC4)CC3)n2)cc1)c1cc(Cl)cc(C#N)c1` (centres unmarked) [Compound 131, 3-chloro-5-(2-(4-((2-(1″-(2-(2,6-dioxopiperidin-3-yl)-1,3-dioxoisoindolin-5-yl)-[4,1′:4′,4″-terpiperidin]-1-yl)pyrimidin-4-yl)methoxy)phenyl)propan-2-yl)benzonitrile] here?
The IC50 was 507 nM.

And the AUC(0-t) [1]?
Its AUC(0-t) is 446 ± 225 ng·h/mL.

What does the source list for `Cn1c(=O)n(C2CCC(=O)NC2=O)c2ccc(N3CCC(C4CCN(CC5CCN(c6nccc(COc7ccc(C(C)(C)c8cc(Cl)c(OCCCl)c(C#N)c8)cc7)n6)CC5)CC4)CC3)cc21` (centres unmarked) [Compound 98 trifluoroacetate, 3-chloro-2-(2-chloroethoxy)-5-(2-(4-((2-(4-((1′-(1-(2,6-dioxopiperidin-3-yl)-3-methyl-2-oxo-2,3-dihydro-1H-benzo[d]imidazol-5-yl)-[4,4′-bipiperidin]-1-yl)methyl)piperidin-1-yl)pyrimidin-4-yl)methoxy)phenyl)propan-2-yl)benzonitrile]?
IC50 (22RV1 cells; Homo sapiens, 22Rv1, 168 h): 621 nM; AUC(0-t) [1]: 492 ± 266 ng·h/mL

Which results are given for `CC(Oc1ccc(C(C)(C)c2cc(Cl)cc(C#N)c2)cc1)c1ccnc(N2CCC(CN3CCC(C4CCN(c5cc6c(cc5F)C(=O)N(C5CCC(=O)NC5=O)C6=O)CC4)CC3)CC2)n1` (centres unmarked) [Compound 127, 3-chloro-5-(2-(4-(1-(2-(4-((1′-(2-(2,6-dioxopiperidin-3-yl)-6-fluoro-1,3-dioxoisoindolin-5-yl)-[4,4′-bipiperidin]-1-yl)methyl)piperidin-1-yl)pyrimidin-4-yl)ethoxy)phenyl)propan-2-yl)benzonitrile]?
IC50 (22RV1 cells): 549 nM; AUC(0-t) [1]: 1860 ± 185 ng·h/mL

Which IC50 (22RV1 cells; Homo sapiens, 22Rv1, 168 h) does the source give for `COc1c(Cl)cc(C(C)(C)c2ccc(OCc3ccnc(N4CCC(CN5CCC(C6CCN(c7cc8c(cc7F)n(C7CCC(=O)NC7=O)c(=O)n8C)CC6)CC5)CC4)n3)cc2)cc1C#N` (centres unmarked) [Compound 123 trifluoroacetate, 3-chloro-5-(2-(4-((2-(4-((1′-(1-(2,6-dioxopiperidin-3-yl)-6-fluoro-3-methyl-2-oxo-2,3-dihydro-1H-benzo[d]imidazol-5-yl)-[4,4′-bipiperidin]-1-yl)methyl)piperidin-1-yl)pyrimidin-4-yl)methoxy)phenyl)propan-2-yl)-2-methoxybenzonitrile] here?
Its IC50 is 527 nM.

What about the AUC(0-t) [1] of the same molecule?
The AUC(0-t) was 1190 ± 724 ng·h/mL.

For `CC(C)(c1ccc(OCc2ccnc(N3CCC4(CCN(CC5CC6(CCN(c7ccc8c(c7)C(=O)N(C7CCC(=O)NC7=O)C8=O)CC6)C5)CC4)CC3)n2)cc1)c1cc(Cl)cc(C#N)c1` (centres unmarked) [Compound 129, 3-chloro-5-(2-(4-((2-(9-((7-(2-(2,6-dioxopiperidin-3-yl)-1,3-dioxoisoindolin-5-yl)-7-azaspiro[3.5]nonan-2-yl)methyl)-3,9-diazaspiro[5.5]undecan-3-yl)pyrimidin-4-yl)methoxy)phenyl)propan-2-yl)benzonitrile], which IC50 (22RV1 cells) is on record?
The IC50 was 569 nM.

And the AUC(0-t) [1]?
Its AUC(0-t) is 812 ± 304 ng·h/mL.

For `CC(C)(c1ccc(OCc2ccnc(N3CCC4(CC3)CCN(C3CC5(CCN(c6ccc7c(c6)C(=O)N(C6CCC(=O)NC6=O)C7=O)CC5)C3)CC4)n2)cc1)c1cc(Cl)cc(C#N)c1` (centres unmarked) [Compound 128, 3-chloro-5-(2-(4-((2-(9-(7-(2-(2,6-dioxopiperidin-3-yl)-1,3-dioxoisoindolin-5-yl)-7-azaspiro[3.5]nonan-2-yl)-3,9-diazaspiro[5.5]undecan-3-yl)pyrimidin-4-yl)methoxy)phenyl)propan-2-yl)benzonitrile], which IC50 (22RV1 cells) is on record?
Its IC50 is 132 nM.

And the AUC(0-t) [1]?
The AUC(0-t) was 604 ± 149 ng·h/mL.

Which “AR-FL Dmax % (maximum degradation rate)” value (full-length AR (AR-FL)) does the source give for `Cn1c(=O)n(C2CCC(=O)NC2=O)c2cccc(CN3CC(N4CCC(N5CCN(c6nccc(COc7ccc(C(C)(C)c8cc(Cl)c(OCCCl)c(C#N)c8)cc7)n6)CC5)CC4)C3)c21` (centres unmarked) [Compound 6 trifluoroacetate, 3-chloro-2-(2-chloroethoxy)-5-(2-(4-((2-(4-(1-(1-((1-(2,6-dioxopiperidin-3-yl)-3-methyl-2-oxo-2,3-dihydro-1H-benzol[d]imidazol-4-yl)methyl)azetidin-3-yl)piperidin-4-yl)piperazin-1-yl)pyrimidin-4-yl)methoxy)phenyl)propan-2-yl)benzonitrile (Compound 6) trifluoroacetate] here?
Its value is 57.6%.

Which IC50 (22RV1 cells; Homo sapiens, 22Rv1, 168 h) does the source give for `CC(C)(c1ccc(OCc2ccnc(N3CCC(CN4CCC(C5CCN(c6ccc7c(c6)C(=O)N(C6CCC(=O)NC6=O)C7=O)CC5)CC4)CC3)n2)cc1)c1cc(Cl)cc(C#N)c1` (centres unmarked) [Compound 37 trifluoroacetate, 3-chloro-5-(2-(4-((2-(4-((1′-(2-(2,6-dioxopiperidin-3-yl)-1,3-dioxoisoindolin-5-yl)-[4,4′-bipiperidin]-1-yl)methyl)piperidin-1-yl)pyrimidin-4-yl)methoxy)phenyl)propan-2-yl)benzonitrile] here?
Its IC50 is 507 nM.

What about the AUC(0-t) [1] of the same molecule?
The AUC(0-t) was 867 ± 66 ng·h/mL.
